Laboratory results as given in PubChem BioAssay AID602280 (Broad Institute, 2012).
The source made the active and inactive calls.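 Rule for the calls: active = compound whose fitted growth curve, scaled so untreated is 0 and control 100, reaches 40 within the tested doses; inconclusive = flat curve between 30 and 70 percent, or unreliable fit; inactive = the rest, including drops in growth.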

tested on: S. cerevisiae GAL-BEM3 growth rescue, OD600, 48 h; experiment: yeast growth restoration under BEM3 overexpression – S. cerevisiae, dry powder, plate reader, dose response (AID 602280)

Row | Structure (SMILES) | AC40
1 | Cc1ccccc1CSc1nsc(N)n1 | > 26 µM (inactive)
2 | CC(C)c1ccc(C2NC(=O)c3ccccc3O2)cc1 (centres undefined) | 2.3 µM
3 | O=c1c2ccccc2[nH]c(=S)n1CCC1=CCCCC1 | 22 µM
4 | Fc1cc(NCc2ccccc2)nc(NCc2ccccc2)n1 | 8.75 µM
